# Data from the supplement of paper PMC11451515.
# Tested on: NOMO1
# Assay: cell viability relative to DMSO control; higher = less cytotoxic
# Details: 48 h
# Summary of the method: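 Library compounds in DMSO were pin-dosed into 1536-well plates (5 μl) holding NOMO1 or SEM (500 cells/well) or P12-Ichikawa (1000 cells/well) leukemia cells, across an 11-point threefold series of 47 μM to 0.79 nM. Each cell line had been adapted for at least four passages in each medium. CellTiter-Glo One luminescence was read after 48 h at 37°C. Viability is the per-plate percentage relative to DMSO wells, with cell-free wells as background.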
# [1] = HPLM + 10% dialyzed FBS, 0.000781 µM
# [2] = HPLM + 10% dialyzed FBS, 0.00234 µM
# [3] = HPLM + 10% dialyzed FBS, 0.00702 µM
# [4] = HPLM + 10% dialyzed FBS, 0.0211 µM
# [5] = HPLM + 10% dialyzed FBS, 0.0632 µM
# [6] = HPLM + 10% dialyzed FBS, 0.19 µM
# [7] = HPLM + 10% dialyzed FBS, 0.569 µM
# [8] = HPLM + 10% dialyzed FBS, 1.71 µM
# [9] = HPLM + 10% dialyzed FBS, 5.12 µM
# [10] = HPLM + 10% dialyzed FBS, 15.4 µM
# [11] = HPLM + 10% dialyzed FBS, 46.1 µM
# [12] = RPMI 5 mM glucose + 10% FBS, 0.000781 µM
# [13] = RPMI 5 mM glucose + 10% FBS, 0.00234 µM
# [14] = RPMI 5 mM glucose + 10% FBS, 0.00702 µM
# [15] = RPMI 5 mM glucose + 10% FBS, 0.0211 µM
# [16] = RPMI 5 mM glucose + 10% FBS, 0.0632 µM
# [17] = RPMI 5 mM glucose + 10% FBS, 0.19 µM
# [18] = RPMI 5 mM glucose + 10% FBS, 0.569 µM
# [19] = RPMI 5 mM glucose + 10% FBS, 1.71 µM
# [20] = RPMI 5 mM glucose + 10% FBS, 5.12 µM
# [21] = RPMI 5 mM glucose + 10% FBS, 15.4 µM
# [22] = RPMI 5 mM glucose + 10% FBS, 46.1 µM
# [23] = RPMI 5 mM glucose + 10% dialyzed FBS, 0.000781 µM
# [24] = RPMI 5 mM glucose + 10% dialyzed FBS, 0.00234 µM
# [25] = RPMI 5 mM glucose + 10% dialyzed FBS, 0.00702 µM
# [26] = RPMI 5 mM glucose + 10% dialyzed FBS, 0.0211 µM
# [27] = RPMI 5 mM glucose + 10% dialyzed FBS, 0.0632 µM
# [28] = RPMI 5 mM glucose + 10% dialyzed FBS, 0.19 µM
# [29] = RPMI 5 mM glucose + 10% dialyzed FBS, 0.569 µM
# [30] = RPMI 5 mM glucose + 10% dialyzed FBS, 1.71 µM
# [31] = RPMI 5 mM glucose + 10% dialyzed FBS, 5.12 µM
# [32] = RPMI 5 mM glucose + 10% dialyzed FBS, 15.4 µM
# [33] = RPMI 5 mM glucose + 10% dialyzed FBS, 46.1 µM
SMILES,cell viability [1] [%],cell viability [2] [%],cell viability [3] [%],cell viability [4] [%],cell viability [5] [%],cell viability [6] [%],cell viability [7] [%],cell viability [8] [%],cell viability [9] [%],cell viability [10] [%],cell viability [11] [%],cell viability [12] [%],cell viability [13] [%],cell viability [14] [%],cell viability [15] [%],cell viability [16] [%],cell viability [17] [%],cell viability [18] [%],cell viability [19] [%],cell viability [20] [%],cell viability [21] [%],cell viability [22] [%],cell viability [23] [%],cell viability [24] [%],cell viability [25] [%],cell viability [26] [%],cell viability [27] [%],cell viability [28] [%],cell viability [29] [%],cell viability [30] [%],cell viability [31] [%],cell viability [32] [%],cell viability [33] [%]
Clc1ccc(C2(c3ccc(-c4cn[nH]c4)cc3)CCNCC2)cc1,80.5,101,111,100,100,98.2,96.6,91.9,69.9,63.3,62.7,80.2,81.3,86.4,83.8,90.8,89.2,98.9,77.9,77.6,65.6,55.3,86.7,99.2,83.4,93.5,99,103,81.4,72.2,70.3,59.9,53.7
CNC(=O)c1cccc(-c2ccc3c(N4CCOC[C@@H]4C)nc(N4CCOC[C@@H]4C)nc3n2)c1,99.9,99.8,83.6,92.1,73.8,61.4,64.3,67.3,60.1,49.3,53.7,98.3,91.1,91.2,96.6,79.6,82.9,87.2,68.9,57.9,60.2,45.2,83.7,85.7,90.5,79.5,75.6,62.8,62.5,54.8,50.4,49.4,50.3
CCOC(=O)Nc1ccc(NCc2ccc(F)cc2)cc1N,112,120,126,129,116,110,121,107,99.1,65.1,31.5,107,112,117,116,117,118,112,113,105,94.3,24.6,115,133,119,119,115,123,110,107,107,89.8,33.9
COc1nc(-c2ccc3c(c2)OCO3)n(-c2ccc(NC(=O)CSc3ccccc3)cc2)n1,–,–,–,–,–,–,–,–,–,–,–,105,108,114,103,113,106,107,102,116,89.1,21.2,102,108,110,117,105,106,103,105,97.7,98.7,23.1
O=C1c2c(O)cccc2[C@H]([C@@H]2O[C@H](CO)[C@@H](O)[C@H](O)[C@H]2O)c2cc(CO)cc(O)c21,87,101,97.9,77,110,122,102,102,111,93.4,97.5,87.8,91.8,81,80.8,94.5,79.8,80.3,83.1,83.1,85.8,84.6,84.7,80.2,106,88.3,87.6,96.6,96.3,86.6,89,83.1,94.6
C[C@H]([C@H](O)CCC(C)(C)O)[C@H]1CC[C@@]2(O)C/3=C/C(=O)[C@@H]4C[C@@H](O)[C@@H](O)C[C@]4(C)[C@H]3CC[C@]12C,–,–,–,–,–,–,–,–,–,–,–,112,115,118,107,106,112,121,104,119,109,104,122,127,125,137,112,121,123,131,125,131,117
CO[C@H]1C[C@@H]2CC[C@@H](C)[C@@](O)(O2)C(=O)C(=O)N2CCCC[C@H]2C(=O)O[C@H]([C@H](C)C[C@@H]2CC[C@@H](OP(C)(C)=O)[C@H](OC)C2)CC(=O)[C@H](C)/C=C(\C)[C@@H](O)[C@@H](OC)C(=O)[C@H](C)C[C@H](C)/C=C/C=C/C=C/1C,110,114,109,116,106,113,102,105,96.7,97,94.5,–,–,–,–,–,–,–,–,–,–,–,122,113,118,115,117,121,120,125,124,103,120
CN(N=O)C(=O)N[C@H]1C(O)OC(CO)[C@@H](O)[C@@H]1O (stereo partly specified),82.7,89.7,98.6,95.7,98.6,82.6,90.2,85,83.1,93.1,88.4,77.7,79.6,82.4,80.6,81.3,90.3,85.7,73.7,81.5,88,79.5,69.3,78.8,74.3,75.5,84.3,75.6,81.2,82.7,81.4,86,72.4
